Assay results reported in publication PMC5564600 (Oncotarget, 2017).
Read-outs that look alike come from different tables or passages of the source.

Legend:
Experiment in all cases: biochemical
Type in all cases: binding
panel of 442 kinases [1] = molecular target: T1, panel of 442 kinases (Homo sapiens, UniProt Q02763); settings: kinase TIE2; for remaining activity at 1 µM: read-out: TIE2 (% of control at 1 µM)
T1 construct: purchased Ambit Biosciences (scanMAXX KINOMEscan)

panel of 442 kinases [2] = molecular target: T2, panel of 442 kinases (Homo sapiens, UniProt P24941); settings: CDK2; for remaining activity at 1 µM: read-out: % of control at 1 µM
T2 construct: purchased Ambit Biosciences (scanMAXX KINOMEscan)

panel of 442 kinases [3] = molecular target: T3, panel of 442 kinases (Homo sapiens, UniProt P52333); settings: kinase JAK3(JH1domain-catalytic); for remaining activity at 1 µM: read-out: % of control at 1 µM
T3 construct: purchased Ambit Biosciences (scanMAXX KINOMEscan)
T3 sequence (P52333 1-1124): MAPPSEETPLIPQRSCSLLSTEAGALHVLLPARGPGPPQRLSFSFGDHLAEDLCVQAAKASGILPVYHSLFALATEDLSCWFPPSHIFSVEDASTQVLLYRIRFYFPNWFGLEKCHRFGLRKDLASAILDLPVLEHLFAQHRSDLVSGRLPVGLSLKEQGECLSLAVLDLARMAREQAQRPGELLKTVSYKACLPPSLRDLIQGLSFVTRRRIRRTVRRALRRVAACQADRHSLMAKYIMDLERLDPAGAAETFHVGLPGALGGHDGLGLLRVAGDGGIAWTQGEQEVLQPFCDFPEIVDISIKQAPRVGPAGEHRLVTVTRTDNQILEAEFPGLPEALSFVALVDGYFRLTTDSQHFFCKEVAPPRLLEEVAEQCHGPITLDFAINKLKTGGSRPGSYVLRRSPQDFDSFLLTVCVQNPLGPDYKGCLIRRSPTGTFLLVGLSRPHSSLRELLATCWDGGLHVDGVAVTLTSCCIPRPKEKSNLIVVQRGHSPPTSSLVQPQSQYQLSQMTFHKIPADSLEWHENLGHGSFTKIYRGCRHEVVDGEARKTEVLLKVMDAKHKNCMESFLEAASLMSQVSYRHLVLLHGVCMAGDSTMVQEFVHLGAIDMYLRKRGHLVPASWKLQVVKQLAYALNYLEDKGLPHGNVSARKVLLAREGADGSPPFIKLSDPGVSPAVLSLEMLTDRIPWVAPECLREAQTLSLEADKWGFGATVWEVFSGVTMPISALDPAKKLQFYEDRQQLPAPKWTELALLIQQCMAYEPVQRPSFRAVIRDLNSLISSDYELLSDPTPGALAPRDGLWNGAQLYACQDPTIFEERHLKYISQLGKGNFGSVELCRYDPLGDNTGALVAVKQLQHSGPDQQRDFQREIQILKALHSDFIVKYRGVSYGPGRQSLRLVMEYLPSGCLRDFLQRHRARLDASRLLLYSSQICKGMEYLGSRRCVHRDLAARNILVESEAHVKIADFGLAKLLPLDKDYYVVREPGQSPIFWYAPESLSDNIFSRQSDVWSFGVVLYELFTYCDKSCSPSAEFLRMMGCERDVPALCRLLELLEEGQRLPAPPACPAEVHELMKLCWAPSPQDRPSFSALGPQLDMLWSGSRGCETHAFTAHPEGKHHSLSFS

panel of 442 kinases [4] = molecular target: T4, panel of 442 kinases (Homo sapiens, UniProt O75582)
T4 construct: purchased Ambit Biosciences (scanMAXX KINOMEscan)
T4 sequence (O75582 whole entry): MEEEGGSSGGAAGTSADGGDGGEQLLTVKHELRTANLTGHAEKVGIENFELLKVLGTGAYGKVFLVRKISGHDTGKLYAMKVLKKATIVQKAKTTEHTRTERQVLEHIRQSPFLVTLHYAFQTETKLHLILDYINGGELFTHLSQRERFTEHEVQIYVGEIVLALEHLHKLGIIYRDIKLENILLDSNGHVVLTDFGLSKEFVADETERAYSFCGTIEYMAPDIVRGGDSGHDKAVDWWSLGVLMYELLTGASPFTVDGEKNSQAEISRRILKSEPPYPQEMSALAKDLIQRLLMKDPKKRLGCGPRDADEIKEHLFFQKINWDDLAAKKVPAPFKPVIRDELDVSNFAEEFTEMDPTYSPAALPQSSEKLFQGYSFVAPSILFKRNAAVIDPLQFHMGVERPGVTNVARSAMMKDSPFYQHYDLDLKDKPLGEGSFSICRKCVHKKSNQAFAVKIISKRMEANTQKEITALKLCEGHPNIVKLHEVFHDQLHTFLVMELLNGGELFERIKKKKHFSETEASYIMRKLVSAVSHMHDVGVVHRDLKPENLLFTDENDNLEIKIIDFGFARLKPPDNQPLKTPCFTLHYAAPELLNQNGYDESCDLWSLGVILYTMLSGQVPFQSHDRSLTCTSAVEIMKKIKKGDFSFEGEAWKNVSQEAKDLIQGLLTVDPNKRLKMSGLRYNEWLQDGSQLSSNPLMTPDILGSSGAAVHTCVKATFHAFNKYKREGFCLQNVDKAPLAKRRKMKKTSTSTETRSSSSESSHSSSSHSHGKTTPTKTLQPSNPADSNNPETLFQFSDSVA

panel of 442 kinases [5] = molecular target: T5, panel of 442 kinases (Homo sapiens, UniProt Q04912); settings: kinase MST1R; for remaining activity at 1 µM: read-out: % of control at 1 µM
T5 construct: purchased Ambit Biosciences (scanMAXX KINOMEscan)
T5 sequence (Q04912 25-1400): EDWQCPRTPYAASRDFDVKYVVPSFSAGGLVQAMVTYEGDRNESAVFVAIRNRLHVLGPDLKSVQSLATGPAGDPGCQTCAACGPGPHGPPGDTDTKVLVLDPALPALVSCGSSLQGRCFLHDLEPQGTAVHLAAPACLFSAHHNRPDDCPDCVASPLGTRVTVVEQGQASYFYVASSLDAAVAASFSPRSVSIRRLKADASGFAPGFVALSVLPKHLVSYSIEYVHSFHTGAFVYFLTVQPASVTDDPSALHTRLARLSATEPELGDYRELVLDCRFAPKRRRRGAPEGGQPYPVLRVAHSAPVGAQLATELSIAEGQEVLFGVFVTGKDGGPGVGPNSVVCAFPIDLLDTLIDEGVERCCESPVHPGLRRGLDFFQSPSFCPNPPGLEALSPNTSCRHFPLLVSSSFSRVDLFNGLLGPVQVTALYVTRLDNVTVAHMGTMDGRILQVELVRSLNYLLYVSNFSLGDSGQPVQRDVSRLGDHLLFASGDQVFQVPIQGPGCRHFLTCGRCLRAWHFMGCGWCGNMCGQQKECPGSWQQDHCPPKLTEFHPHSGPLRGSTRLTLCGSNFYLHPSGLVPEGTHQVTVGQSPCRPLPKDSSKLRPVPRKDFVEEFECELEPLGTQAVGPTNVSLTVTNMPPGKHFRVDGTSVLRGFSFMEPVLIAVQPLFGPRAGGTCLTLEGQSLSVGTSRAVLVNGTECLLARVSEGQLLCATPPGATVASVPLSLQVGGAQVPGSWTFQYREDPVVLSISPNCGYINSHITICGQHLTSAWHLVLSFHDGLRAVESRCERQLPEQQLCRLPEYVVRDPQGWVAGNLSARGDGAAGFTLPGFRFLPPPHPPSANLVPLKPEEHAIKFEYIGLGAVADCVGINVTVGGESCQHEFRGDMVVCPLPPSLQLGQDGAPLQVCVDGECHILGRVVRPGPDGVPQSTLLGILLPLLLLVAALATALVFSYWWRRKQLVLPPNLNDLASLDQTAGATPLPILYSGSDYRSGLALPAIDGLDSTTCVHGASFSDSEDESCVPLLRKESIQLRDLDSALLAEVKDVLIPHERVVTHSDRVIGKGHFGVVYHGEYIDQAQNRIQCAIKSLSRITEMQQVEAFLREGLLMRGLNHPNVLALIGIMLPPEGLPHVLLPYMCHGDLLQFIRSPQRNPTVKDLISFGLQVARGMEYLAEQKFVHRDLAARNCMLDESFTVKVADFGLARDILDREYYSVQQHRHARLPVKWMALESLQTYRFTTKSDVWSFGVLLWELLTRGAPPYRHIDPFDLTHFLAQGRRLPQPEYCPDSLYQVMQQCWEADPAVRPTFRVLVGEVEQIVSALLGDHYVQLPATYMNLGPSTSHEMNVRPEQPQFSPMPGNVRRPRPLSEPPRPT

panel of 442 kinases [6] = molecular target: T6, panel of 442 kinases (Homo sapiens, UniProt Q8IVW4); settings: CDKL3; for remaining activity at 1 µM: read-out: % of control at 1 µM
T6 construct: purchased Ambit Biosciences (scanMAXX KINOMEscan)
T6 sequence (Q8IVW4 whole entry): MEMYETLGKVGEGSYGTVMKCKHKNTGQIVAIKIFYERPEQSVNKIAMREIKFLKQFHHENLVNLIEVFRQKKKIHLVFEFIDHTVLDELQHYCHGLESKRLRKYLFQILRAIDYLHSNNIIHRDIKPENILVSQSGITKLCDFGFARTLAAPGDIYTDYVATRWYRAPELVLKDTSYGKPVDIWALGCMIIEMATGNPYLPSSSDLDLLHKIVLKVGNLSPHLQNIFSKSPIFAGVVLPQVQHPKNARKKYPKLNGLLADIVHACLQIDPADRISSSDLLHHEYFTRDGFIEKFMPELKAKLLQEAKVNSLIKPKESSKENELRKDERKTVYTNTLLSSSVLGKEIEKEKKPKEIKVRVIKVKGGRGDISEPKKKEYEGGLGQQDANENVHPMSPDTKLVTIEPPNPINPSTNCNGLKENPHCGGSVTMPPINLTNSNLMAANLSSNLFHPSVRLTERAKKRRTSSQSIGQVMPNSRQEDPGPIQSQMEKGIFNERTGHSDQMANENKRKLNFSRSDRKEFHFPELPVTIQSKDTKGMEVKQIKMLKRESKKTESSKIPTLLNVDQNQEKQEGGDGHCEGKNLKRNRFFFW

panel of 442 kinases [7] = molecular target: T7, panel of 442 kinases (Homo sapiens, UniProt Q04759); settings: kinase PRKCQ; for remaining activity at 1 µM: read-out: PRKCQ (% of control at 1 µM)
T7 construct: purchased Ambit Biosciences (scanMAXX KINOMEscan)
T7 sequence (Q04759 whole entry): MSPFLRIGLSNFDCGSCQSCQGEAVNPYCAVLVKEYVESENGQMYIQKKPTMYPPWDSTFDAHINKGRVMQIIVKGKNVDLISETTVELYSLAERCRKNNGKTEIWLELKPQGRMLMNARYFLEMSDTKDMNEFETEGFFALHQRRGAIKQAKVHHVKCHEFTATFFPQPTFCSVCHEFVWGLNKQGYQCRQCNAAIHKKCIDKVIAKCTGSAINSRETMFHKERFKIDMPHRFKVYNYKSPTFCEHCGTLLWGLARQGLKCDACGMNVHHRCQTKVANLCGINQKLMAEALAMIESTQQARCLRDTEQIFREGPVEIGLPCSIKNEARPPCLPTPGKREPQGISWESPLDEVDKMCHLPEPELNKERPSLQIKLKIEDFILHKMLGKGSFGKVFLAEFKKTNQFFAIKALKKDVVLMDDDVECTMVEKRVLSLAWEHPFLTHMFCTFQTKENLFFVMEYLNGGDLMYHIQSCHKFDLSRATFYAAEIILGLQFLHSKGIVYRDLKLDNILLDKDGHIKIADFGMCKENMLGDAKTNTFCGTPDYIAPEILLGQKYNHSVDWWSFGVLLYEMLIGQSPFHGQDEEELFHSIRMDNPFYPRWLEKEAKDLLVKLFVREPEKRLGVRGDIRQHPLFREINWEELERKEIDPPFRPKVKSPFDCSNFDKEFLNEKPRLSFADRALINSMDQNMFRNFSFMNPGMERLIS

panel of 442 kinases [8] = molecular target: T8, panel of 442 kinases (Homo sapiens, UniProt Q13627); settings: DYRK1A; for remaining activity at 1 µM: read-out: % of control at 1 µM
T8 construct: purchased Ambit Biosciences (scanMAXX KINOMEscan)

panel of 442 kinases [9] = molecular target: T9, panel of 442 kinases (Homo sapiens, UniProt P53778); settings: kinase p38-gamma; for remaining activity at 1 µM: read-out: % of control at 1 µM
T9 construct: purchased Ambit Biosciences (scanMAXX KINOMEscan)
T9 sequence (P53778 1-367): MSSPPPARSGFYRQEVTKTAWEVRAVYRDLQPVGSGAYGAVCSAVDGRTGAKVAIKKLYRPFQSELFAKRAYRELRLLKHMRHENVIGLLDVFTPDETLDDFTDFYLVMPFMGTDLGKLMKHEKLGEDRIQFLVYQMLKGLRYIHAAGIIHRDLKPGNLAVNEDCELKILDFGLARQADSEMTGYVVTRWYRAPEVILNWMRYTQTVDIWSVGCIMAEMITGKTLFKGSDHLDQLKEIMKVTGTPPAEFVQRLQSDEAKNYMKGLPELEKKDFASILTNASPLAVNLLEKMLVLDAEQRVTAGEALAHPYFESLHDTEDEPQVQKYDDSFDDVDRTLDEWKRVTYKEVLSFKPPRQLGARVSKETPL

panel of 442 kinases [10] = molecular target: T10, panel of 442 kinases (Homo sapiens, UniProt P16591); settings: FER; for remaining activity at 1 µM: read-out: % of control at 1 µM
T10 construct: purchased Ambit Biosciences (scanMAXX KINOMEscan)

panel of 442 kinases [11] = molecular target: T11, panel of 442 kinases (Homo sapiens, UniProt P49840); settings: kinase GSK3A; for remaining activity at 1 µM: read-out: % of control at 1 µM
T11 construct: purchased Ambit Biosciences (scanMAXX KINOMEscan)

panel of 442 kinases [12] = molecular target: T12, panel of 442 kinases (Homo sapiens, UniProt P15056); settings: BRAF; for remaining activity at 1 µM: read-out: % of control at 1 µM
T12 construct: purchased Ambit Biosciences (scanMAXX KINOMEscan)

panel of 442 kinases [13] = molecular target: T13, panel of 442 kinases (Plasmodium falciparum, UniProt P61075); settings: kinase PFPK5(P.falciparum); for remaining activity at 1 µM: read-out: % of control at 1 µM; for remaining activity at 10 µM: read-out: % of control at 10 µM
T13 construct: purchased Ambit Biosciences (scanMAXX KINOMEscan)
T13 sequence (P61075 whole entry): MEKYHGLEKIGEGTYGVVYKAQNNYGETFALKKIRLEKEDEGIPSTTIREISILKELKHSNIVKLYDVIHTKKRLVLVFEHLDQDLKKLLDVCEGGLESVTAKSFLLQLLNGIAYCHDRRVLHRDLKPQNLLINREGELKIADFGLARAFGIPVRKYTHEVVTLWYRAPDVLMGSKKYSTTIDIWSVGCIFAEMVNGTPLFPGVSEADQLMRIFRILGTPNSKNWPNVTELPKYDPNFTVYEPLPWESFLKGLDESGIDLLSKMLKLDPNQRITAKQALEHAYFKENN

[14] = 10 µM, read-out: % of control at 10 µM
[15] = kinase RPS6KA5(Kin.Dom.1-N-terminal), read-out: RPS6KA5(Kin.Dom.1-N-terminal) (% of control at 1 µM)
[16] = kinase RPS6KA5(Kin.Dom.2-C-terminal), read-out: RPS6KA5(Kin.Dom.2-C-terminal) (% of control at 1 µM)

T1 sequence (Q02763 23-1124): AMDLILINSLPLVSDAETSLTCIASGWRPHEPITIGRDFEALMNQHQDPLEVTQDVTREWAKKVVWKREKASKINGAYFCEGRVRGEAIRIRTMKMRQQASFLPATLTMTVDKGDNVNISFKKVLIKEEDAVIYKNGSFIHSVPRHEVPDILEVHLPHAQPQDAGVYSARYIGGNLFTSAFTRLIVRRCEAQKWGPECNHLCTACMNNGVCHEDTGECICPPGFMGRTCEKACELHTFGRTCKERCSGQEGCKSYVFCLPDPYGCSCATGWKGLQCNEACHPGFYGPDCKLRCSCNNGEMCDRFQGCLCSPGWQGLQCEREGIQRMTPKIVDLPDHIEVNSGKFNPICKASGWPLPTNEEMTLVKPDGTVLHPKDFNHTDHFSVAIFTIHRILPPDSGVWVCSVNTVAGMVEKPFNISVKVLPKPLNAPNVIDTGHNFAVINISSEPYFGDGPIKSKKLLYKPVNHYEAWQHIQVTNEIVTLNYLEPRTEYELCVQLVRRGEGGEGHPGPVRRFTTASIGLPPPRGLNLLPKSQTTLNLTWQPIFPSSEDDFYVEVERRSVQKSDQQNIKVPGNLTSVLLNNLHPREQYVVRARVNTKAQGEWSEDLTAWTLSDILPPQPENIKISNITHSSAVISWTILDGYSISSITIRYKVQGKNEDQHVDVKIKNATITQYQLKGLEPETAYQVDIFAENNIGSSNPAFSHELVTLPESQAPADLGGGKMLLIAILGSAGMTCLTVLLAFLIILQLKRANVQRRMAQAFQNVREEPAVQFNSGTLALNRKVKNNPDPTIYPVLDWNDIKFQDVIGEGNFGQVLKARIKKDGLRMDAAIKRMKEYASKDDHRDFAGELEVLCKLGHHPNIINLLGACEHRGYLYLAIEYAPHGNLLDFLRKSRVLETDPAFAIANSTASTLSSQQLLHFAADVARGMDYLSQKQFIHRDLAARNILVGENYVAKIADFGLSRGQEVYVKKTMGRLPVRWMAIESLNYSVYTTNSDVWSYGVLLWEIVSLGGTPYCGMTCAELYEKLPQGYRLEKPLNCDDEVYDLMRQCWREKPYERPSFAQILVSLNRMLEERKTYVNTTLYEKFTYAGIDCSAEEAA

SMILES | remaining activity at 1 µM (panel of 442 kinases [1]) [%] | remaining activity at 1 µM (panel of 442 kinases [2]) [%] | remaining activity at 1 µM (panel of 442 kinases [3]) [%] | remaining activity at 1 µM (panel of 442 kinases [4]; [15]) [%] | remaining activity at 1 µM (panel of 442 kinases [4]; [16]) [%] | remaining activity at 1 µM (panel of 442 kinases [5]) [%] | remaining activity at 1 µM (panel of 442 kinases [6]) [%] | remaining activity at 1 µM (panel of 442 kinases [7]) [%] | remaining activity at 1 µM (panel of 442 kinases [8]) [%] | remaining activity at 1 µM (panel of 442 kinases [9]) [%] | remaining activity at 1 µM (panel of 442 kinases [10]) [%] | remaining activity at 1 µM (panel of 442 kinases [11]) [%] | remaining activity at 1 µM (panel of 442 kinases [12]) [%] | remaining activity at 1 µM (panel of 442 kinases [13]) [%] | remaining activity at 10 µM (panel of 442 kinases [13]) [%] | further results
Nc1cc(C(F)(F)F)c(-c2cc(N3CCOCC3)nc(N3CCOCC3)n2)cn1 [Buparlisib] | 100 | 84 | 90 | 100 | 74 | 74 | 92 | 91 | 80 | 100 | 100 | 93 | 59 | 100 | 100 | remaining activity at 10 µM (panel of 442 kinases [1]; 10 µM, read-out: TIE2 (% of control at 10 µM)): 100%; remaining activity at 10 µM (panel of 442 kinases [2]; [14]): 100%; remaining activity at 10 µM (panel of 442 kinases [3]; [14]): 89%; remaining activity at 10 µM (panel of 442 kinases [4]; kinase RPS6KA5(Kin.Dom.1-N-terminal), read-out: RPS6KA5(Kin.Dom.1-N-terminal) (% of control at 10 µM)): 100%; remaining activity at 10 µM (panel of 442 kinases [4]; kinase RPS6KA5(Kin.Dom.2-C-terminal), read-out: RPS6KA5(Kin.Dom.2-C-terminal) (% of control at 10 µM)): 96%; remaining activity at 10 µM (panel of 442 kinases [5]; [14]): 100%; remaining activity at 10 µM (panel of 442 kinases [6]; [14]): 100%; remaining activity at 10 µM (panel of 442 kinases [7]; 10 µM, read-out: PRKCQ (% of control at 10 µM)): 100%; remaining activity at 10 µM (panel of 442 kinases [8]; [14]): 51%; remaining activity at 10 µM (panel of 442 kinases [9]; [14]): 100%; remaining activity at 10 µM (panel of 442 kinases [10]; [14]): 100%; remaining activity at 10 µM (panel of 442 kinases [11]; [14]): 100%; remaining activity at 10 µM (panel of 442 kinases [12]; [14]): 40%
COc1ncc(-c2ccc3nccc(-c4ccnnc4)c3c2)cc1NS(=O)(=O)c1ccc(F)cc1F [Omipalisib] | 100 | 100 | 82 | 100 | 100 | 95 | 100 | 100 | 100 | 69 | 100 | 100 |  | 100 |  | 
FC(F)c1nc2ccccc2n1-c1nc(N2CCOCC2)nc(N2CCOCC2)n1 [ZSTK474, 2-(difluoromethyl)-1-[4,6-di(4-morpholinyl)-1,3,5-triazin-2-yl]-1H-benzimidazole] | 100 | 74 | 100 | 81 | 100 | 92 | 100 | 98 | 100 | 100 | 55 | 100 | 61 | 100 |  | 
CS(=O)(=O)N1CCN(Cc2cc3nc(-c4cccc5[nH]ncc45)nc(N4CCOCC4)c3s2)CC1 [Pictilisib, 2-(1H-indazol-4-yl)-6-(4-methanesulfonyl-piperazin-1-ylmethyl)-4-morpholin-4-yl-t hieno[3,2-d]pyrimidine] |  |  |  |  |  |  |  |  |  |  |  |  |  | 92 | 100 | 
Cn1c(=O)n(-c2ccc(C(C)(C)C#N)cc2)c2c3cc(-c4cnc5ccccc5c4)ccc3ncc21 [Dactolisib, 2-methyl-2-[4-(3-methyl-2-oxo-8-quinolin-3-yl-2,3-dihydroimidazo[4,5-c]quinolin-1-yl)-phenyl] propionitrile] | 100 | 78 | 37 | 64 | 100 | 60 | 57 | 85 | 100 | 100 | 60 |  | 88 | 100 |  | 
